Results from patent US5776892A, “Anti-inflammatory peptides” (Curative Health Services, Inc., priority 1994, dated 1998).
Where two headings read alike, the source gives them in different places. No end group written: not given here.

Key:
[1] = system: myeloperoxidase activity in mouse ear; assay: Myeloperoxidase activity in AA-treated mouse ear tissue (PMN marker); assay type: in vivo; details: Table II
Protocol: Myeloperoxidase activity in ear tissue was measured as a marker for the presence or absence of polymorphonuclear leukocytes (PMNs) (Barone et al., 1991, J. Neurosci. Res. 29:336-345). After measurement of ear thickness, ears were dissected from the mice and homogenized in 50 mM Tris-HCL, pH 7.4 at 4° C. to give a 10% (w/v) homogenate. Aliquots of the homogenate were used to determine the amount of myeloperoxidase activity present in the tissue using o-dianisidine (Sigma Chem Co., St. Louis Mo.) and hydrogen peroxide as substrates and monitoring chromophore generation at 460 nm (Barone et al., 1991, J. Neurosci. Res. 29:336-345).

neutrophils [2] = assay: Neutrophil chemotaxis to f-Met-Leu-Phe (Neuroprobe chamber, fluorescence 530 nm); assay type: cell-based; details: 15 min pre-exposure; read at 1 hr; FIG. 3
Protocol: (§1) The ability of CT-112 (SEQ. ID NO: 1) to inhibit chemotaxis of neutrophils in response to a variety of agents was assessed using Neuroprobe chemotaxis chambers. For these assays, neutrophils were resuspended in Hank's balanced salt solution with Ca^2+ and Mg^2+ to give a 5×10^6 cells/ml suspension after the cells were labeled with 1',7'-bis(2-carboxyethyl)-5-(6)-carboxyfluorescein. The neutrophils were exposed to CT-112 (SEQ. ID NO: 1) for approximately 15 min prior to addition to the chemotaxis chambers. CT-112 (SEQ. ID NO: 1) was present in both the top and bottom of the chambers, and the chemoattractant, either f-Met-Leu-Phe, leukotriene B4 or interleukin-8, was added to the bottom of chamber. Cells which had migrated through the membrane were determined by fluorescence at 530 nm at 1 hr after initiation of the assay.

neutrophils [3] = assay: Neutrophil chemotaxis to interleukin-8; assay type: cell-based; details: 15 min pre-exposure; read at 1 hr; FIG. 5
Protocol: as §1

neutrophils [4] = assay type: cell-based
Excerpt: In addition, CT-112 (SEQ. ID NO: 1) was not cytotoxic to neutrophils, as determined by viability testing using trypan blue exclusion (FIG. 3).

[5] = system: type-II collagen-induced arthritis; assay type: in vivo, mouse
Protocol: Mice (DBA/1, 10-12 weeks old, Jackson Laboratories) were randomly assigned to one of 3 groups […]. CT-112 (SEQ. ID NO: 1) was prepared for injection by dissolving in sterile PBS. CT-112 (SEQ. ID NO: 1) was administered daily according to the following schedule: a) Control animals (0.1 ml of sterile PBS) (7 mice); b) Low dose CT-112 (0.1 ml sterile PBS containing 0.25 mg CT-112 at 10 mg/kg) (8 mice); and c) High dose CT-112 (0.1 ml sterile PBS containing 2.5 mg of CT-112 at 100 mg/kg) (8 mice). Three days after initial dosing with CT-112 (SEQ. ID NO: 1), all mice were injected intradermally at the base of the tail with 100 μg of bovine type-II collagen in Freund's complete adjuvant. Mice were monitored daily for the onset of disease, and weighed twice weekly with overall health status noted. Arthritis-affected animals were clinically assessed 5 times per week until 10 weeks post-immunization. Paw measurements were taken 3 times per week. Mice lacking signs of arthritis 10 weeks post-immunizationwere considered disease-free. All mice were pre-bled prior to the start of the trial, subsequently again at 2 and 4 weeks post-immunization, again at the onset of CIA, and finally at the termination of the study. Sera were separated and stored at -80° C. ELISA assays were performed to determine anti-collagen antibody concentrations. Spleen and lymph nodes were removed at sacrifice, and single cell suspensions prepared therefrom. Mitogen responses to Con A and LPS, as well as antigen-specific responses to type-II collagen, were determined. Appropriate statistical comparisons (Chi square, Student's T-test and non-parametric median comparisons) were performed using SPSS/PC software to assess the influence of CT-112 (SEQ. ID NO: 1) at both low and high doses on the incidence, onset, severity and progression of collagen-induced arthritis, the antibody response to collagen, T-cell and B-cell mitogen responses, and T-cell specific responses to type-II collagen.

Acute toxicity in mice = assay type: in vivo, mouse; details: intravenous 100, 500 or 1,000 mg/kg
Protocol: Acute toxicity of CT-112 (SEQ. ID NO: 1) in mice and rats was assessed. Mice were dosed by intravenous injection with CT-112 (SEQ. ID NO: 1) at 100, 500 or 1,000 mg/kg.

[6] = system: mouse bone marrow polychromatic erythrocyte; details: in vivo

Question: Which “Myeloperoxidase Activity” value ([1]; 0.05 mg/animal/day minipump) does the source give for “TTSQVRPR [CT-112, octapeptide derived from platelet factor 4]” here?
Answer: 19.6 ± 15.6 μmole of chromophore formed/mi

Question: And the “Myeloperoxidase Activity” value ([1]; 0.1 mg/animal/day minipump)?
Answer: 17.0 ± 9.6 μmole of chromophore formed/mi

Question: And the “Myeloperoxidase Activity” value ([1]; 1.0 mg/animal/day minipump)?
Answer: 14.7 ± 13.3 μmole of chromophore formed/mi

Question: What about the “chemotactic migration of neutrophils to f-Met-Leu-Phe” value (neutrophils [2]) of the same sequence?
Answer: effectively inhibited

Question: What about the “chemotactic migration of neutrophils to interleukin-8” value (neutrophils [3]) of the same sequence?
Answer: not to interleukin-8

Question: And the “cytotoxicity to neutrophils (trypan blue exclusion)” value (neutrophils [4])?
Answer: not cytotoxic

Question: What about the “anti-collagen antibody reduction in serum” value ([5]; 4 wks post-immunization, high dose group, p=0.028, FIG. 14) of the same sequence?
Answer: statistically significant

Question: And the “effects on synovitis and pannus (histopathology)” value ([5]; both high and low doses, FIG. 13)?
Answer: not significant

Question: And the “disease-induced loss of joint architecture (histopathology)” value ([5]; both high and low doses, p≤0.05, FIG. 13)?
Answer: significantly reducing

Question: And the “spleen cell response to Con A and to LPS” value ([5]; cells from treated mice)?
Answer: neither immunosuppression nor immunoactivation

Question: And the “final incidence of CIA” value ([5]; high dose, 100 mg/kg daily)?
Answer: 50%

Question: And the Maximum paw swelling ([5]; low and high dose)?
Answer: not influenced

Question: And the “final incidence of CIA” value ([5]; low dose, 10 mg/kg daily)?
Answer: 62.5%

Question: And the “involved paws in remission at the conclusion of the trial” value ([5]; low dose, 10 mg/kg daily)?
Answer: 25%

Question: What about the “number of involved paws” value ([5]; low dose, 10 mg/kg daily, p=0.035 vs control, FIG. 11) of the same sequence?
Answer: significantly fewer paws

Question: And the lesions at necropsy (Acute toxicity in mice)?
Answer: No lesions were visible at necropsy

Question: What about the “mean body weight and mean body weight gain vs control” value (Acute toxicity in mice) of the same sequence?
Answer: no statistical differences

Question: What about the clinical effects (Acute toxicity in mice; one mouse at 500 and two at 1,000 mg/kg, day of treatment) of the same sequence?
Answer: Minimal transient clinical effects (hypoactivity and hypersensitivity)

Question: What about the micronuclei [6] of the same sequence?
Answer: did not induce a significant increase in micronuclei
